Test results published in the supplement of paper PMC10307832.

What was measured:
Experiment in all cases: relative viability (nuclei count vs DMSO), 5 days (fraction); higher = more cells survive
[1] = compound: O=S(=O)(c1ccccc1)N(CC(F)(F)F)c1ccc(C(O)(C(F)(F)F)C(F)(F)F)cc1 + N=C(N)NC(=N)NCCc1ccccc1 [Phenformin] (partner 250 µM)
Summary of the method: (§1)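 Dosing by pin tool came one day after lung cancer cell lines were seeded in 1536-well plates, using either one drug or a fixed anchor-drug dose plus five library-drug doses (not always all listed) in √10 steps. After 5 days, nuclei were counted on 4× images. Relative viability is treated-well nuclei count divided by vehicle-well nuclei count, and values are medians of duplicate plates.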

[2] = compound: O=S(=O)(c1ccccc1)N(CC(F)(F)F)c1ccc(C(O)(C(F)(F)F)C(F)(F)F)cc1 + CS(=O)(=O)CCNCc1ccc(-c2ccc3ncnc(Nc4ccc(OCc5cccc(F)c5)c(Cl)c4)c3c2)o1 [Lapatinib] (partner 2 µM)
Summary of the method: as §1

RO-3306 + Pictilisib = compound: C1=CC2=C(C=CC(=C2)C=C3C(=O)NC(=NCC4=CC=CS4)S3)N=C1 [RO-3306] + CS(=O)(=O)N1CCN(Cc2cc3nc(-c4cccc5[nH]ncc45)nc(N4CCOCC4)c3s2)CC1 [Pictilisib] (partner 1 µM)
Summary of the method: as §1

[3] = compound: O=S(=O)(c1ccccc1)N(CC(F)(F)F)c1ccc(C(O)(C(F)(F)F)C(F)(F)F)cc1 + CCNC(=O)c1noc(-c2cc(C(C)C)c(O)cc2O)c1-c1ccc(CN2CCOCC2)cc1 [Luminespib] (partner 0.01 µM)
Summary of the method: as §1

[4] = compound: O=S(=O)(c1ccccc1)N(CC(F)(F)F)c1ccc(C(O)(C(F)(F)F)C(F)(F)F)cc1 + Nc1ncn([C@H]2C[C@H](O)[C@@H](CO)O2)c(=O)n1 [Decitabine] (partner 2 µM)
Summary of the method: as §1

Row | Cell Line | relative viability ([1]; first compound 0.8 µM) | relative viability ([1]; first compound 2.53 µM) | relative viability ([1]; first compound 8 µM) | relative viability ([2]; first compound 0.8 µM) | relative viability ([2]; first compound 2.53 µM) | relative viability ([2]; first compound 8 µM) | relative viability (RO-3306 + Pictilisib; first compound 0.01 µM) | relative viability (RO-3306 + Pictilisib; first compound 0.03162 µM) | relative viability (RO-3306 + Pictilisib; first compound 0.1 µM) | relative viability (RO-3306 + Pictilisib; first compound 0.3162 µM) | relative viability (RO-3306 + Pictilisib; first compound 1 µM) | relative viability ([3]; first compound 0.8 µM) | relative viability ([3]; first compound 2.53 µM) | relative viability ([3]; first compound 8 µM) | relative viability ([4]; first compound 0.8 µM) | relative viability ([4]; first compound 2.53 µM) | relative viability ([4]; first compound 8 µM)
1 | 201T | 0.451 | 0.41 | 0.503 | 1.01 | 0.949 | 1.03 | 0.671 | 0.616 | 0.668 | 0.663 | 0.559 | 1.05 | 0.887 | 0.975 | 0.846 | 0.858 | 0.834
2 | A549 | 0.17 | 0.159 | 0.186 | 0.949 | 0.772 | 0.715 | 0.551 | 0.485 | 0.477 | 0.504 | 0.323 | – | – | – | 0.411 | 0.292 | 0.201
3 | A-427 | 0.286 | 0.254 | 0.326 | 1.04 | 0.919 | 1.1 | 0.707 | 0.735 | 0.638 | 0.781 | 0.483 | 0.919 | 0.774 | 1.05 | 0.526 | 0.509 | 0.551
4 | ABC-1 | 0.238 | 0.246 | 0.335 | 1.45 | 1.21 | 1.26 | 0.688 | 0.725 | 0.712 | 0.732 | 0.866 | 0.746 | 0.571 | 0.519 | – | 1.02 | 1.05
5 | BEN | 0.262 | 0.249 | 0.283 | 0.67 | 0.684 | 0.629 | 0.559 | 0.487 | 0.532 | 0.697 | 0.623 | 0.343 | 0.289 | 0.182 | 0.801 | 0.773 | 0.687
6 | CAL-12T | 0.512 | 0.471 | 0.464 | – | 0.531 | 0.592 | 0.359 | – | – | 0.411 | 0.462 | 0.38 | 0.251 | 0.354 | – | – | –
7 | COR-L23 | 0.452 | 0.451 | 0.427 | 1.24 | 0.872 | 0.913 | 0.816 | – | 0.835 | 0.77 | 0.67 | 0.953 | 0.728 | 0.628 | 0.428 | 0.439 | 0.461
8 | COR-L 105 | 0.455 | 0.422 | 0.492 | 0.377 | 0.386 | 0.371 | 0.355 | 0.364 | 0.361 | 0.47 | 0.366 | 0.784 | 0.665 | 0.659 | 0.63 | 0.679 | 0.649
9 | Calu-6 | – | – | – | 0.945 | 0.901 | 0.966 | 1.1 | 0.97 | 0.934 | 0.866 | 0.91 | – | – | – | – | – | –
10 | ChaGo-K-1 | 0.517 | 0.52 | 0.474 | – | – | – | 0.692 | 0.701 | 0.449 | 0.69 | 0.49 | 0.573 | 0.719 | 0.706 | 0.746 | 0.497 | 0.49
